Measurements reported in US12319696B2, “2,6-dimethyl-n-((pyridin-4-yl)methyl)imidazo[1,2-b]pyridazin-8-amine and 2,5-dimethyl-n-[(pyridin-4-yl)methyl]pyrazolo[1,5-a]pyrimidin-7-amine derivatives for treating viral infections” (CUROVIR AB, priority 2018, dated 2025).
pIC50: −log10 of the molar value.

Legend:
enterovirus strain 6 = test: microbe, parasite or virus in culture; assay type: cell-based; conditions: inhibition of viral CPE; for inhibition at 0.01 µM: 10 nM, read-out: Inh. at 10 nM, EV6; for inhibition at 0.1 µM: 100 nM, read-out: Inh. at 100 nM, EV6
enterovirus strain 30 = test: Antiviral CPE inhibition assay in mammalian cell culture, EV30; assay type: cell-based; conditions: inhibition of viral CPE; for inhibition at 0.01 µM: 10 nM, read-out: Inh. at 10 nM, EV30; for inhibition at 0.1 µM: 100 nM, read-out: Inh. at 100 nM, EV30
enterovirus D68 = test: Antiviral CPE inhibition assay in mammalian cell culture, EV-D68; assay type: cell-based; conditions: Enterovirus D, EVD68, inhibition of viral CPE; for inhibition at 0.01 µM: 10 nM, read-out: Inh. at 10 nM, EV-D68; for inhibition at 0.1 µM: 100 nM, read-out: Inh. at 100 nM, EV-D68
enterovirus strain 71 = test: Antiviral CPE inhibition assay in mammalian cell culture, EV71; assay type: cell-based; conditions: inhibition of viral CPE; for inhibition at 0.01 µM: 10 nM, read-out: Inh. at 10 nM, EV71; for inhibition at 0.1 µM: 100 nM, read-out: Inh. at 100 nM, EV71
[1] = system: coxsackie B virus strain 1; test: Antiviral CPE inhibition assay in mammalian cell culture, Cox B1; assay type: cell-based; conditions: for inhibition at 0.01 µM: read-out: Inh. at 10 nM, Cox B1; for inhibition at 0.1 µM: read-out: Inh. at 100 nM, Cox B1
[2] = system: coxsackie B virus strain 2; test: Antiviral CPE inhibition assay in mammalian cell culture, Cox B2; assay type: cell-based; conditions: for inhibition at 0.01 µM: read-out: Inh. at 10 nM, Cox B2; for inhibition at 0.1 µM: read-out: Inh. at 100 nM, Cox B2
[3] = system: coxsackie B virus strain 3; test: Antiviral CPE inhibition assay in mammalian cell culture, Cox B3; assay type: cell-based; conditions: for inhibition at 0.01 µM: read-out: Inh. at 10 nM, Cox B3; for inhibition at 0.1 µM: read-out: Inh. at 100 nM, Cox B3
[4] = system: coxsackie B virus strain 5; test: Antiviral CPE inhibition assay in mammalian cell culture, Cox B5; assay type: cell-based; conditions: for inhibition at 0.01 µM: read-out: Inh. at 10 nM, Cox B5; for inhibition at 0.1 µM: read-out: Inh. at 100 nM, Cox B5
polio virus strain 1 = test: organism not typed; assay type: cell-based; conditions: for inhibition at 0.01 µM: read-out: Inh. at 10 nM, Polio 1; for inhibition at 0.1 µM: read-out: Inh. at 100 nM, Polio 1
CYP3A4 = molecular target: T1, CYP3A4 (Homo sapiens, UniProt P08684); test: In vitro CYP 3A4 enzyme inhibition in human liver microsomes by probe substrate method; assay type: in vitro ADME; conditions: human liver microsomes 0.5 mg/mL; probe substrate Midazolam 5 μM
T1 construct: from tissue; host or cells: human liver microsomes
T1 sequence (P08684 whole entry): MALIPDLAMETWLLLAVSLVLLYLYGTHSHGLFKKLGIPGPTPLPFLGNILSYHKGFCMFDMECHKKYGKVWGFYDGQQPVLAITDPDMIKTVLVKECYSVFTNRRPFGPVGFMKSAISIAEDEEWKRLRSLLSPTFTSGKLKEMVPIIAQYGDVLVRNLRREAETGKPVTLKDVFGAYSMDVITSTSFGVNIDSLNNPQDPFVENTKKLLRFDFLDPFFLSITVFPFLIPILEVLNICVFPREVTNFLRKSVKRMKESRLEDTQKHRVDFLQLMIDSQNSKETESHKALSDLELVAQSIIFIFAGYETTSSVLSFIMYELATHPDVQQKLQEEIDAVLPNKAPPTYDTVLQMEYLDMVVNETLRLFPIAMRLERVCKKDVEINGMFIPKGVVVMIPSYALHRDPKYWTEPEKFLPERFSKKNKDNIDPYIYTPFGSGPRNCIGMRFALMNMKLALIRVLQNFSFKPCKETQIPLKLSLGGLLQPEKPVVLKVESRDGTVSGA
Method: In Vitro CYP 3A4 Enzyme Inhibition Study in Human Liver Microsomes by Probe Substrate Method
In vitro CYP3A4 enzyme inhibition assay was performed using Human liver microsomes at 0.5 mg/mL concentration. Ketoconazole was used as reference inhibitor and Midazolam was used as selective probe substrate for CYP 3A4 enzyme. Serial dilution of test/control items was prepared in potassium phosphate buffer (50 mM, pH 7.40) to obtain eight concentrations each in a 1:4 dilution pattern. The percentage of acetonitrile/DMSO was maintained at 2.5%/0.25% in 2.5× serially diluted control/test item solutions respectively. The final percentage of acetonitrile/DMSO was 1%/0.1% respectively. Intermediate solutions such as 10× working solution (5 mg/mL) of Human liver microsomal solution, 10× concentration of reference probe substrates in buffer, 5× concentrations of Cofactors (5.0 mM NADP+, 25.0 mM G-6-P, 3.0 IU/mL G-6-PDH and 10.0 mM MgCl2) were prepared in potassium phosphate buffer. The final concentration of liver microsomes in the reaction mixture was 0.5 mg/mL, cofactors was 1.0 mM NADP+, 5.0 mM G-6-P, 0.6 IU/mL G-6-PDH and 2.0 mM MgCl2. Midazolam was tested at 5 μM test concentration. 40 μL of 2.5× serially diluted test/control item solutions and 10 μL of […] liver microsomal solution were added to 96 well plate and incubated for 10 min at 37° C. with shaking condition (400 rpm) using Thermomixer. After pre incubation, 20 μL of potassium phosphate buffer, 10 μL of respective probe substrate working solution and 20 μL of cofactor mix was added.

[5] = Metabolic stability in human liver microsomes; assay type: in vitro ADME; conditions: 5 μM test item, 0.25 mg/mL microsomal protein
Method: (§1) Metabolic stability assay was carried out using Human/Rat liver microsomes. […] Test item/Control items were incubated with Human/Rat liver microsomes with cofactors and without cofactors. The reaction mixture (100 μL) was removed at specified time period and the reaction was stopped by addition of stop solution. The samples were extracted in presence of internal standard and were analyzed using LC-MS/MS. The percent of the test/Control item remaining after specified incubation period was calculated with respect to the peak area ratio at time 0 min. […] The reaction mixture was incubated further at 37° C. for specified incubation time points (With Cofactors: 0, 15, 30, 60 and 120 min; Without Cofactors: 0 and 120 min). 100 μL incubation samples of test items and Control items at specified incubation time points were transferred to respective tubes for sample extraction. Test and Control item specimens were extracted by Protein precipitation method. A 100 μL incubation sample at each time point was added to tubes containing 200 μL of ice-cold acetonitrile and 50 μL Haloperidol solution (0.5 μg/mL). Then the tubes were vortex mixed thoroughly and centrifuged at 10000 rpm for 10 minutes at 4° C. A clear supernatant of 200 μL of samples were submitted for LC-MS/MS analysis.

[6] = Metabolic stability in rat liver microsomes; assay type: in vitro ADME; conditions: 5 μM test item, 0.25 mg/mL microsomal protein
Method: as §1

[7] = Human plasma protein binding (Rapid Equilibrium Dialysis); assay type: in vitro ADME; conditions: pH 7.4, RED device, 37° C.
Method: (§2) Plasma protein binding study was performed using a Rapid Equilibrium Dialysis (RED) device containing dialysis membrane with a molecular weight cut-off of 8,000 Daltons. Each dialysis insert contained two chambers. The red chamber was for the plasma while the white chamber was for the buffer. Test items and Control items (Warfarin and Propranolol) were prepared at a required test concentration of 10 μM in Human/Rat plasma (pH adjusted to 7.40) using 10 mM DMSO stocks (final DMSO concentration was 0.1%). 300 μL of plasma sample was added into the sample chamber. 500 μL of buffer was added into the buffer chamber. After sealing the RED device with an adhesive film, incubation was done at 37° C. with shaking at 300 rpm for 4 h. Following incubation, an aliquot of 50 μL was removed from each well (plasma and buffer side) and diluted with equal volume of opposite matrix to nullify the matrix effect and subjected for sample extraction.
(§3) All samples were extracted by Protein Precipitation method by adding 200 μL of ice cold Acetonitrile and 50 μL of internal standard (Haloperidol at 0.1 μg/mL) solution. The tubes were vortex mixed thoroughly and centrifuged at 10000 rpm, 4° C. for 10 minutes. A clear supernatant of 200 μL of samples were submitted for LC-MS/MS analysis.

[8] = Rat plasma protein binding (Rapid Equilibrium Dialysis); assay type: in vitro ADME; conditions: pH 7.4, RED device, 37° C.
Method: as §2, §3

Structure (SMILES) | inhibition at 0.01 µM (enterovirus strain 6) [%] | inhibition at 0.1 µM (enterovirus strain 6) [%] | inhibition at 0.01 µM (enterovirus strain 30) [%] | inhibition at 0.1 µM (enterovirus strain 30) [%] | inhibition at 0.01 µM (enterovirus D68) [%] | inhibition at 0.1 µM (enterovirus D68) [%] | inhibition at 0.01 µM (enterovirus strain 71) [%] | inhibition at 0.1 µM (enterovirus strain 71) [%] | inhibition at 0.01 µM [1] [%] | inhibition at 0.1 µM [1] [%] | inhibition at 0.01 µM [2] [%] | inhibition at 0.1 µM [2] [%] | inhibition at 0.01 µM [3] [%] | inhibition at 0.1 µM [3] [%] | inhibition at 0.01 µM [4] [%] | inhibition at 0.1 µM [4] [%] | inhibition at 0.01 µM (polio virus strain 1) [%] | inhibition at 0.1 µM (polio virus strain 1) [%] | pIC50 (CYP3A4) | other results
COc1ccc(-c2c(C)nc3c(NCc4ccnc(C)c4)cc(C)nn23)cc1OC [Ex. 1, 3-(3,4-dimethoxyphenyl)-2,6-dimethyl-N-((2-methylpyridin-4-yl)methyl)imidazo[1,2-b]pyridazin-8-amine] | 100 | 100 | 100 | 100 | 85 | 83 | 68 | 77 | 93 | 100 | 100 | 100 | 100 | 100 | 80 | 100 | 100 | 100 | 4.64 | –
Cc1cc(NCc2ccnc(F)c2)n2nc(C)c(-c3ccc4c(c3)c(C)nn4C)c2n1 [Ex. 3, 3-(1,3-dimethyl-1H-indazol-5-yl)-2,5-dimethyl-N-[(2-fluoropyridin-4-yl)methyl]pyrazolo[1,5-a]pyrimidin-7-amine] | 88 | 100 | 100 | 100 | 76 | 70 | 82 | 81 | 68 | 100 | 100 | 100 | 100 | 100 | 48 | 100 | 100 | 100 | < 4.60 | % remaining after incubation for 60 min, Human microsomes [5]: 96.1%; % remaining after incubation for 60 min, Rat microsomes [6]: 99.4%; fraction unbound at 4 h, 10 μM [7]: 0.022; fraction unbound at 4 h, 10 μM [8]: 0.059
COc1ccc(-c2c(C)nc3c(NCc4ccnc(F)c4)cc(C)nn23)cc1OC [compound 2, 3-(3,4-dimethoxyphenyl)-N-((2-fluoropyridin-4-yl)methyl)-2,6-dimethylimidazo[1,2-b]pyridazin-8-amine] | 100 | 100 | 100 | 100 | 73 | 68 | 76 | 75 | 100 | 100 | 100 | 100 | 100 | 100 | 84 | 100 | 100 | 100 | < 4.60 | –
